# What was measured:
# [1] = Topical podophyllotoxin on vaginal peaks in patients with post-hysterectomic pain; format: in vivo, human
# Procedure: In accordance with the invention podophyllotoxin can also be used for intense tenderness to touch and palpation in the upper vaginal corners with post-hysterectomic pain, sometimes also with bleed in. After the rinse with acetum the vaginal corners are treated with podophyllotoxin, and vaginal ointment can be applied on the treated areas if necessary. The treatment can be repeated at least three times if necessary, at intervals of either one day or one month.
# At the end of about three years the patient returned to the gynecologic outpatient clinic and complained about a strong continual pain in the lower part of the abdomen and a pushing feeling in the rectum. […] The vaginal peaks were treated locally with podophyllotoxin three times at two days' intervals. Especially the right corner was very tender to palpation. After the third treatment there was no more pain.
# (§1) The patient hade undergone hysterectomy, suffered from pain, a small muscular tumour and adhesions after endometriosis. The patient had suffered from incontinence for about a year. There had been no distinct inflammations. […] They were pencilled. Nevertheless, after about six months the patient returned to the clinic because of pain in the lower abdomen, the back and a sting in the urinary bladder. The sore vaginal peaks were pencilled with podophyllotoxin once more.
# Post-hysterectomic pain was examined in 26 patients. The vagina was first washed with a 3% acetum solution and then the vaginal peaks were pencilled with podophyllotoxin. A vaginal ointment was used occasionally on the pencilled areas. The treatment was repeated 1 to 3 times at about one month's intervals.
# [2] = Topical podophyllotoxin on sore vestibular (Bartholin's) glands in vulvodynia patients; format: in vivo, human
# Description: In the treatment, the vagina is first washed with a 3% acetum solution. The vulva, especially Batrholin's glands are examined by means of colposcopy. A second object is a slightly uneven, netlike area located obliquely behind, at the sides of the outer mouth of the urethra. Sometimes small hyperemetic cavities, small vestibular glands are found in the vulvar region, which are not sore in a healthy person. In vulvodynia they are typically very tender to touch and red, ligulate and with embossed edges. In vulvodynia Bartholin's gland orifices are sometimes closed. These points often start bleeding at palpation.
# In accordance with the invention, the sore glands are pencilled with podophyllotoxin. Any commonly used vaginal ointment is applied on the pencilled area. The treatment is repeated twice if necessary at an interval of about one month. The treatment is usually not effective at once, however, in the course of typically two weeks there is no more pain.
# The gland orifices were pencilled with a 5% podophyllotoxin solution. The pain during intercourse disappeared at the end of a couple of weeks. After about two years the pain recurred. Podophyllotoxin was applied to the gland orifices anew. At the end of two months the lefthand, still tender gland orifice was pencilled once more.
# The patient had undergone hysterectomy because of prolapse and extended cervix. However, the prolapse recurred (enterocele), and was resectioned from below. After the surgery the patient suffered from vaginal pain, which was stronger on the left side. There was no inflammation, the pain persisted. A gynecologist made repeated examinations, found nothing wrong and consulted a neurologist, who made the diagnosis inexplicable postoperative pain. […] Podophyllotoxin was applied twice at one month's interval and once more the following day.
# as §1
# A total of 151 patients were treated over a period of two years, and among these 75% had typical vulvodynia symptoms and the remainder atypical other symptoms, such as disorders of the urinary tracts, vaginal dryness, itching and recurrent candidosis. However, intense tenderness to touch of the vestibular glands was typical for all of the patients.
# All of the patients were treated in the same way: first the vagina was washed with a 3% solution of acetum, the sore glands were treated with podophyllotoxin and vaginal ointment was applied on this. 46 patients were treated only once and 6 patients were treated 10 times, the patients were treated 2.6 times on the average.
smiles,measurement,setting,value
COc1cc([C@@H]2c3cc4c(cc3[C@H](O)[C@H]3COC(=O)[C@H]23)OCO4)cc(OC)c1OC [podophyllotoxin],pain after treatment of vaginal peaks,"[1]; Example 2, same patient about three years later, vaginal peaks treated three times at two days' intervals, after the third treatment",no more pain
same,incontinence after treatment of vaginal peaks,"[1]; Example 3, control one month after last pencilling of vaginal peaks",disappeared
same,patient's state at control after treatment of vaginal peaks,"[1]; Example 3, sore vaginal peaks pencilled again about six months later, control one month later",completely recovered
same,number of patients remaining free of symptoms during the control period,"[1]; Example 5, 26 patients, vaginal peaks pencilled 1 to 3 times at about one month's intervals, maximum control period 9 months",17 patients
same,results of treatment (general statement),"[1]; upper vaginal corners treated, repeated at least three times if necessary",extremely good
same,pain during intercourse after treatment,"[2]; Example 1, one patient, Bartholin's gland orifices pencilled with 5% podophyllotoxin solution, at the end of a couple of weeks",disappeared
same,pain after repeat treatment of recurrence,"[2]; Example 1, recurrence after about two years, gland orifices pencilled anew, left orifice once more after two months, in the course of a couple of weeks",disappeared completely
same,symptoms after treatment,"[2]; Example 2, one patient, postoperative vaginal pain, left Bartholin's gland and right side of urethra, applied twice at one month's interval and once more the following day",free of symptoms
same,pain in the glands after treatment,"[2]; Example 3, one patient, sore glands in the introitus pencilled once, after one month",no pain in the glands
same,number of patients free of symptoms,"[2]; Example 4, 151 patients treated, 2.6 times on average, about two weeks after the treatment",about one hundred
same,number of patients considered to have probably recovered,"[2]; Example 4, 151 patients treated, follow-up maximum more than 5 years",40 patients
same,immediate effect on pain,"[2]; directly after treatment, before relief in the course of a couple of weeks",increases the pain
same,pain after treatment (general statement),"[2]; sore glands pencilled, repeated twice if necessary at about one month interval, in the course of typically two weeks",no more pain
same,pain at small red cavities of the front part of the vulva,[2]; vestibulitis type condition,relieved
